The source of these data is patent US20250090699A1, “FAP TARGETING CYCLIC PEPTIDES AND CONJUGATES THEREOF” (Novartis AG, priority 2023, published 2025).

Where a name gives a salt, the structure may show the parent alone. Starred links: 1 amine or outer side, 2 acyl side, 3 side chain; linkers in the order of their positions; H or OH if unused. Non-standard residues stand in square brackets, D forms with d. Residues, ends and D or L forms follow the SMILES beside them. Groups on a side chain read outwards from the residue. *: point of attachment. F(4amPEG2NHDOTA-Lu) = lutetium complex of (S)-2,2',2''-(10-(1-(4-(2-amino-2-carboxyethyl)phenyl)-3,12-dioxo-5,8-dioxa-2,11-diazatridecan-13-yl)-1,4,7,10-tetraazacyclododecane-1,4,7-triyl)triacetic acid (Phe with 4-aminomethyl-PEG2-DOTA-Lu), O=C([O-])CN1CCN(CC(=O)[O-])CCN(CC(=O)NCCOCCOCC(=O)NCc2ccc(C[C@H](N[*:1])C(=O)[*:2])cc2)CCN(CC(=O)[O-])CC1.[Lu+3]; F(4amPEG2NHDOTA-Ga) = gallium complex of (S)-2,2',2''-(10-(1-(4-(2-amino-2-carboxyethyl)phenyl)-3,12-dioxo-5,8-dioxa-2,11-diazatridecan-13-yl)-1,4,7,10-tetraazacyclododecane-1,4,7-triyl)triacetic acid (Phe with 4-aminomethyl-PEG2-DOTA-Ga), O=C([O-])CN1CCN(CC(=O)[O-])CCN(CC(=O)NCCOCCOCC(=O)NCc2ccc(C[C@H](N[*:1])C(=O)[*:2])cc2)CCN(CC(=O)[O-])CC1.[Ga+3]; F(4amPEG2NHAAZTA-Lu) = lutetium complex of (S)-2,2'-((6-(1-(4-(2-amino-2-carboxyethyl)phenyl)-3,12-dioxo-5,8-dioxa-2,11-diazahexadecan-16-yl)-1,4-bis(carboxymethyl)-1,4-diazepan-6-yl)azanediyl)diacetic acid (Phe with 4-aminomethyl-PEG2-AAZTA-L; F4(METRIAZOLYLMENHDOTA-Lu) = Phe with 4-(methyl-triazolyl-methyl-NH-DOTA), Lu complex; COpipzaa = 4-(carboxymethyl)piperazine-1-carbonyl, O=C(O)CN1CCN(C(=O)*)CC1; hS(Pr) = O-propyl-L-homoserine, CCCOCC[C@H](N[*:1])C(=O)[*:2]; DOTA = O=C(O)CN1CCN(CC(=O)O)CCN(CC(=O)*)CCN(CC(=O)O)CC1; Piperazinyl(4-CH2COOH) = O=C(O)CN1CCN(*)CC1; AEF = NCCOc1ccc(C[C@H](N)C(=O)O)cc1; mTyr = N[C@@H](Cc1cccc(O)c1)C(=O)O; NMeF = CN[C@@H](Cc1ccccc1)C(=O)O; αMeD = C[C@](N)(CC(=O)O)C(=O)O; Ahp(2) = CCCCC[C@H](N)C(=O)O; Cba = N[C@@H](CC1CCC1)C(=O)O; CO = O=C([*:1])[*:2]

As usually defined, the IC50 is the point on the concentration scale where inhibition reaches its midpoint. By Kd is commonly meant the concentration at which binding is half-saturated. A lower Kd goes with higher affinity.

The target in test [1] is T1, human FAP (Homo sapiens, UniProt Q12884).
T1 construct: the biotinylated His, Avi tag, human FAP (26-760, FAP-H82Q6); His; Avi tag (biotinylated); purchased AcroBiosystems FAP-H82Q6
T1 sequence (Q12884 26-760): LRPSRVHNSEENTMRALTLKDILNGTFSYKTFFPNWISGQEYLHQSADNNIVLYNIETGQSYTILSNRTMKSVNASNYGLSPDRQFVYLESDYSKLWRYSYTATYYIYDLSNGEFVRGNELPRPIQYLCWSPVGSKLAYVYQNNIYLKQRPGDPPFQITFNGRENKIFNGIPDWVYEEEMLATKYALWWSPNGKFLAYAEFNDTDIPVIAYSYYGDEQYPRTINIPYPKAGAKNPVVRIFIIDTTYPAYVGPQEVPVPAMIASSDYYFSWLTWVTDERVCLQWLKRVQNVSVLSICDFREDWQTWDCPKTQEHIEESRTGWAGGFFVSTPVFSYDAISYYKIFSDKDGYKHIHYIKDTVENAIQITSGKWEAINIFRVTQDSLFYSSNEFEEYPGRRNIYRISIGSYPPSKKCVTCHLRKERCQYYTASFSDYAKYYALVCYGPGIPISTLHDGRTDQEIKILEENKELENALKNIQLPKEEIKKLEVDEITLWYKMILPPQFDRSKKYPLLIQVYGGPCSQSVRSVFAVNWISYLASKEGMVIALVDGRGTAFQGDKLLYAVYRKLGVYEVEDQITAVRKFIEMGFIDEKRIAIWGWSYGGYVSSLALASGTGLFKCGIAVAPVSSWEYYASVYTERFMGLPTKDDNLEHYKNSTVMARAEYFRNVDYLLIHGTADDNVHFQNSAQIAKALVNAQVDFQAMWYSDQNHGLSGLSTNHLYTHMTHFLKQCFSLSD
Put plainly: Enzymatic FAP competition assay (Z-Gly-Pro-AMC fluorescence), human FAP. The test is classed as biochemical. The following applies: read-out: h. FAP, Enz., IC50. Put shortly: (§1)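 IC50 values come from curve fitting of duplicate % inhibition data on AMC fluorescence (ex 380, em 460 nm) after 4 h at 22-24° C with 50 μM Z-Gly-Pro-AMC. Beforehand, peptides up to 1 μM (14 levels) sat 24 h with 0.01 nM human (26-760) or mouse (26-761) tagged FAP in phosphate buffer pH 7.5, NaCl, Tween20, 1% DMSO.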

Test [2] addresses T2, mouse FAP (Mus musculus, UniProt P97321).
T2 construct: biotinylated His, Avi tag, mouse FAP (26-761, FAP-M82Q5); His; Avi tag (biotinylated); purchased AcroBiosystems FAP-M82Q5
T2 sequence (P97321 26-761): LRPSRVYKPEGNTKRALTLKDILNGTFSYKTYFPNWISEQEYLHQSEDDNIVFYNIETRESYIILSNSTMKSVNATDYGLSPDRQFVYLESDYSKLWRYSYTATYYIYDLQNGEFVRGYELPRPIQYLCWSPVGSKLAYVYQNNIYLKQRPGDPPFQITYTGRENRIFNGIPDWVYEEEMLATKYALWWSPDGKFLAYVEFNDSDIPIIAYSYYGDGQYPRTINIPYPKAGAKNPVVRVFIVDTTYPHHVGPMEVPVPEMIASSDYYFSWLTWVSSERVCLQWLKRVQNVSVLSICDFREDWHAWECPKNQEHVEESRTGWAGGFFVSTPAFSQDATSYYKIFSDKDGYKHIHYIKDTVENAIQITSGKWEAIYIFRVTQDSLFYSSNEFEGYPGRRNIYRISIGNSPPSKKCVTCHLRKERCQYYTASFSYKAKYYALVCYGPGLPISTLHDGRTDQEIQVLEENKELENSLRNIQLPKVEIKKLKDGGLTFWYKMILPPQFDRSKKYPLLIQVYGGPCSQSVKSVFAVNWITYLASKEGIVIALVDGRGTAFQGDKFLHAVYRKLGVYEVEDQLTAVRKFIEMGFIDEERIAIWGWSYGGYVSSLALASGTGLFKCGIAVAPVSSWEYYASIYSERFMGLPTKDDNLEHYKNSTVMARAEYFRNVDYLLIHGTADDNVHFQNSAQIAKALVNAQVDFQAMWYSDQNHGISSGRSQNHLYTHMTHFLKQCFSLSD
Put plainly: Surface plasmon resonance (SPR) for peptide affinity, mouse FAP. The test is classed as binding. Summed up: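 KD values come from a 1:1 kinetic fit of single-cycle SPR data: 8 peptide concentrations, 25 °C, 30 μL/min, HEPES-buffered saline pH 7.6 with 2% DMSO. Targets were His/Avi-tagged human (26-760) or mouse (26-761) FAP, amine-coupled to CM5 or held on a CAPture chip.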
On the technique in general: In SPR one partner is held on a chip, and binding of the other changes the refractive index at the surface.

Test [3] deals with T2, mouse FAP. Description: Enzymatic FAP competition assay (Z-Gly-Pro-AMC fluorescence), mouse FAP. The conditions noted are these: read-out: m. FAP, Enz., IC50. The test is classed as biochemical. Put shortly:
as §1

As for “Gly-Gly-NMePhe-F(4amPEG2NHDOTA-Ga)-Ahp-Trp-Gly-Tyr-Asp-D-Pro (cyclo(GG[NMeF][F(4amPEG2NHDOTA-Ga)][Ahp(2)]WGYD[dP]); also: Ga complex) [Example C49]”, the half-inhibitory concentration (IC50) in test [1] came to 0.005 nM; in test [3], 0.016 nM. In test [2], the Kd is below 0.012 nM.
For `CCCCC[C@@H]1NC(=O)[C@H](Cc2ccc(O)cc2)NC(=O)[C@H](Cc2ccccc2)N(C)C(=O)CNC(=O)CNC(=O)[C@H]2CCCN2C(=O)[C@H](CC(=O)O)NC(=O)[C@H](Cc2cccc(O)c2)NC(=O)CNC(=O)[C@H](Cc2c[nH]c3ccccc23)NC1=O` [Example A14, Gly-Gly-NMePhe-Tyr-Ahp-Trp-Gly-F(3OH)-Asp-D-Pro] (cyclo([Ahp(2)]WG[mTyr]D[dP]GG[NMeF]Y)), the IC50 worked out at 0.092 nM in test [1] and 0.37 nM in test [3]. The same compound had a Kd in test [2] of 0.239 nM.
As to `CCCCC[C@@H]1NC(=O)[C@H](Cc2ccc(O)cc2)NC(=O)[C@H](CC2CCC2)NC(=O)CNC(=O)CNC(=O)[C@H]2CCCN2C(=O)[C@H](CC(=O)O)NC(=O)[C@H](Cc2ccc(O)cc2)NC(=O)CNC(=O)[C@H](Cc2c[nH]c3ccccc23)NC1=O` [Example A60, Gly-Gly-cBuA-Tyr-Ahp-Trp-Gly-Tyr-Asp-D-Pro] (cyclo([Ahp(2)]WGYD[dP]GG[Cba]Y)), the IC50 turned out to be 0.041 nM in test [1] and 0.127 nM in test [3]. The same compound came in with a Kd in test [2] of 0.05 nM.
The matching figures for `CCCCC[C@@H]1NC(=O)[C@H](Cc2ccc(O)cc2)NC(=O)[C@H](Cc2ccccc2)N(C)C(=O)CNC(=O)[C@H](CO)NC(=O)[C@H]2CCCN2C(=O)[C@H](CC(=O)O)NC(=O)[C@H](Cc2ccc(O)cc2)NC(=O)CNC(=O)[C@H](Cc2c[nH]c3ccccc23)NC1=O` [Example A19, Ser-Gly-NMePhe-Tyr-Ahp-Trp-Gly-Tyr-Asp-D-Pro] (cyclo([Ahp(2)]WGYD[dP]SG[NMeF]Y)): 0.145 nM, 0.66 nM and 0.26 nM.
The matching figures for “Gly-Gly-NMePhe-F4(METRIAZOLYLMENHDOTA-Lu)-Ahp-Trp-Gly-Tyr-Asp-D-Pro (cyclo(GG[NMeF][F4(METRIAZOLYLMENHDOTA-Lu)][Ahp(2)]WGYD[dP]); also: Lu complex) [Example C14]”: 0.009 nM, 0.024 nM and 0.048 nM.
For the compound `CCCCC[C@@H]1NC(=O)[C@H](Cc2ccc(OCCN)cc2)NC(=O)[C@H](Cc2ccccc2)N(C)C(=O)CNC(=O)CNC(=O)[C@H]2CCCN2C(=O)[C@H](CC(=O)O)NC(=O)[C@H](Cc2ccc(O)cc2)NC(=O)CNC(=O)[C@H](Cc2c[nH]c3ccccc23)NC1=O` [Example A59, Gly-Gly-NMePhe-F(4OEtNH2)-Ahp-Trp-Gly-Tyr-Asp-D-Pro, TFA salt] (cyclo([AEF][Ahp(2)]WGYD[dP]GG[NMeF])), the half-inhibitory concentration (IC50) in test [1] was found to be 0.136 nM; in test [3] it was 0.49 nM. The same compound returned a Kd in test [2] of 0.38 nM.
The matching figures for “Gly-Gly-NMePhe-F(4amPEG2NHAAZTA-Lu)-hS(Pr)-Trp-Gly-K(COpipzaa)-Asp-D-Pro (cyclo(GG[NMeF][F(4amPEG2NHAAZTA-Lu)][hS(Pr)]WGK(COpipzaa)D[dP]); also: Lu complex) [Example C32]”: 0.017 nM, 0.044 nM and below 0.027 nM.
On to `CCCCC[C@@H]1NC(=O)[C@H](Cc2ccc(O)cc2)NC(=O)[C@H](Cc2ccccc2)N(C)C(=O)CNC(=O)CNC(=O)[C@H]2CCCN2C(=O)[C@](C)(CC(=O)O)NC(=O)[C@H](Cc2ccc(O)cc2)NC(=O)CNC(=O)[C@H](Cc2c[nH]c3ccccc23)NC1=O` [Example A72, Gly-Gly-NMePhe-Tyr-Ahp-Trp-Gly-Tyr-aMeD-D-Pro] (cyclo([Ahp(2)]WGY[αMeD][dP]GG[NMeF]Y)), for which the results for the IC50 in test [1] and in test [3] were 237 nM and 1000 nM, respectively. In test [2], this compound yielded a Kd above 6000 nM.
For “Gly-Gly-NMePhe-F(4amPEG2NHDOTA-Lu)-Ahp-Trp-Gly-Tyr-Asp-D-Pro (cyclo(GG[NMeF][F(4amPEG2NHDOTA-Lu)][Ahp(2)]WGYD[dP]); also: Lu complex) [Example C15]”, the IC50 worked out at 0.003 nM in test [1] and 0.009 nM in test [3]. In test [2], this compound registered a Kd of 0.013 nM.
The like results for `CCCCC[C@@H]1NC(=O)[C@H](Cc2ccc(OCCN)cc2)NC(=O)[C@H](Cc2ccccc2)N(C)C(=O)CNC(=O)[C@H](CCCCNC(=O)N2CCN(CC(=O)O)CC2)NC(=O)[C@H]2CCCN2C(=O)[C@H](CC(=O)O)NC(=O)[C@H](Cc2ccc(O)cc2)NC(=O)CNC(=O)[C@H](Cc2c[nH]c3ccccc23)NC1=O` [Example A46, K(COpipzaa)-Gly-NMePhe-F(4OEtNH2)-Ahp-Trp-Gly-Tyr-Asp-D-Pro, TFA salt] (cyclo([AEF][Ahp(2)]WGYD[dP]K([CO-Piperazinyl(4-CH2COOH)])G[NMeF])) were, in that order, 0.5 nM, 2.8 nM and 2.2 nM.
The like results for “Gly-Gly-NMe3PyA-F(4amPEG2NHDOTA-Lu)-hS(Pr)-W7N-Gly-K(COpipzaa)-Asp-D-Pro [Example C3]” were, in that order, 0.007 nM, 0.019 nM and below 0.041 nM.
The matching figures for `CCCCC[C@@H]1NC(=O)[C@H](Cc2ccc(OCCNC(=O)CN3CCN(CC(=O)O)CCN(CC(=O)O)CCN(CC(=O)O)CC3)cc2)NC(=O)[C@H](Cc2ccccc2)N(C)C(=O)CNC(=O)CNC(=O)[C@H]2CCCN2C(=O)[C@H](CC(=O)O)NC(=O)[C@H](CCCCNC(=O)N2CCN(CC(=O)O)CC2)NC(=O)CNC(=O)[C@H](Cc2c[nH]c3ccccc23)NC1=O` [Example B3, Gly-Gly-NMePhe-F(4OEtNHDOTA)-Ahp-Trp-Gly-K(COpipzaa)-Asp-D-Pro] (cyclo([AEF](DOTA)[Ahp(2)]WGK([CO-Piperazinyl(4-CH2COOH)])D[dP]GG[NMeF])): 0.025 nM, 0.091 nM and 0.093 nM.
